The results in this text go back to PMC8708503, “Scalarane Sesterterpenoids with Antibacterial and Anti-Proliferative Activities from the Mushroom Neonothopanus nambi” (Molecules, 2021).

Common to all, as to assay type: cell-based
Test [1] has as its system Staphylococcus aureus ATCC 25923. The test is described as follows: Antibacterial assay (CLSI), S. aureus. Also noted: key to MIC, Staphylococcus aureus ATCC 25923: inactive: Inactive at >128 μg/mL. Particulars: Inactive at >128 μg/mL; for MIC: Staphylococcus aureus, ATCC25923. The method, then:
(§1) Five microorganism cultures (Methicillin resistant S. aureus DMST 20654, S. aureus ATCC 25923, S. sonnei ATCC 11060, B. subtilis ATCC 6633, and B. cereus ATCC 11778) were used. The experiments were performed at the Department of Microbiology, Faculty of Science, Khon Kaen University, Thailand. The antibacterial assay was performed as recommended by the Clinical and Laboratory Standards Institute. The standard drugs kanamycin and chloramphenicol were used as positive controls.

The subject of test [2] is Bacillus cereus ATCC 11778. The test is described as follows: Antibacterial assay (CLSI), B. cereus. Further details: key to MIC, Bacillus cereus ATCC 11778: inactive: Inactive at >128 μg/mL. Particulars: Inactive at >128 μg/mL; for MIC: Bacillus cereus, ATCC11778. The method, then: as §1
Test [3] deals with Bacillus subtilis ATCC 6633. The test is described as follows: Antibacterial assay (CLSI), B. subtilis. Further details: key to MIC, Bacillus subtilis ATCC 6633: inactive: Inactive at >128 μg/mL. Particulars: Inactive at >128 μg/mL; for MIC: Bacillus subtilis, ATCC6633. The method, then: as §1
For test [4], the system named is Methicillin Resistant Staphylococcus aureus DMST 20654. The test can be described thus: Antibacterial assay (CLSI), MRSA. Also noted: key to MIC, Methicillin Resistant Staphylococcus aureus DMST 20654: inactive: Inactive at >128 μg/mL. Particulars: Inactive at >128 μg/mL; for MIC: Staphylococcus aureus. The method, then:
as §1

In test [5] the test system is A549 human lung carcinoma cell line. The test can be described thus: MTT anti-proliferative assay, A549. Particulars: Mean ± S.D. (n = 3). The method, then: (§2) The anti-proliferative effect on cancer cells was evaluated by MTT (3-(4,5-dimethylthiazol-2-yl)-2,5-diphenyltetrazolium bromide) assay. Cells (8 × 10^3 cell/well) were seeded onto 96-well plates and incubated for 24 h to allow adherence. After 24 h, the cells were exposed to increasing concentrations (3.12, 6.25, 12.5, 25, 50, and 100 μg/mL) of pure metabolites in a mixture of DMSO and ethanol (1:1) for 72 h. Control groups were treated with a mixture of DMSO and ethanol (1:1). After the indicated time, the medium was replaced with 110 μL of fresh medium containing MTT (0.5 mg/mL in PBS) (Sigma Chemical Co., St Louis, MO, USA) and incubated for 2 h. The formazan formed after conversion of MTT was dissolved in DMSO. The absorbance of formazan was measured with a microplate reader (Bio-Rad Laboratories, Hercules, CA, USA) at the wavelength of 550 nm with a reference wavelength of 655 nm. The percentage of viable cells which corresponds to the production of formazan was calculated using the following formula [19]. %cell viability = [Sample (A550 - […])/Control (A550 - […])] × 100(1)
Background: Formazan colour is commonly taken as a measure of viable cells.

The test system of test [6] is HT29 human colon cancer. The test can be described thus: MTT anti-proliferative assay, HT29. Particulars: Mean ± S.D. (n = 3). The method, then: as §2
The test system of test [7] is HeLa human cervical cancer. The test is described as follows: MTT anti-proliferative assay, HeLa. Particulars: 72 h, Mean ± S.D. (n = 3). The method, then: as §2
The test system of test [8] is HCT-116 human colon cancer. The test is described as follows: MTT anti-proliferative assay, HCT-116. To be noted: Mean ± S.D. (n = 3). The method, then:
as §2

Test [9] relates to Vero cells. The test can be described thus: MTT cytotoxicity assay, Vero cells. Particulars: 72 h, Mean ± S.D. (n = 3). The method, then:
as §2

≈ marks a conversion by molar mass, not a printed value. A value given as a limit tells only on which side of the number the result lay.

For the compound `O=C(N[C@H](CO)[C@H](O)c1ccc([N+](=O)[O-])cc1)C(Cl)Cl` [Chloramphenicol, reference compound], the minimum inhibitory concentration (MIC) in test [1] stood at 8 µg/mL (≈ 24.8 µM); in test [2], 4 µg/mL (≈ 12.4 µM); in test [3] it was 4 µg/mL (≈ 12.4 µM); in test [4], 8 µg/mL (≈ 24.8 µM).
Regarding `CC(=O)OC1CC2(C)C3CCC4=C(C(O)OC4=O)C3(C)CC(OC(=O)C=C(C)CC(=O)O)C2C2(C)CCCC(C)(C)C12` (centres unmarked) [Compound 7, Nambiscalarane H], the IC50 in [5] (Homo sapiens, A549, 72 h) is > 100 µM; in [6] (Homo sapiens, HT-29, 72 h) it was > 100 µM; in test [7] (Homo sapiens, HeLa) it was > 100 µM; in test [8] (Homo sapiens, HCT-116, 72 h) it was > 100 µM; in [9] (Chlorocebus sabaeus, Vero), > 100 µM. Moreover, the “IC50, Vero Cells” value in test [9] is “no cytotoxicity”. For the same compound, the “MIC, Staphylococcus aureus ATCC 25923” value in test [1] is “inactive”. Also, the MIC in test [2] and in test [3] was 64 µg/mL (≈ 109 µM) in each case. The “MIC, Methicillin Resistant Staphylococcus aureus DMST 20654” value in test [4] was “inactive”.
On to `NC[C@H]1O[C@H](O[C@H]2[C@H](O)[C@@H](O[C@H]3O[C@H](CO)[C@@H](O)[C@H](N)[C@H]3O)[C@H](N)C[C@@H]2N)[C@H](O)[C@@H](O)[C@@H]1O` [Kanamycin, reference compound], for which the “MIC, Staphylococcus aureus ATCC 25923” value in test [1] came to 2 µg/mL (≈ 4.13 µM). Also, the “MIC, Bacillus cereus ATCC 11778” value in test [2] was 16 µg/mL (≈ 33 µM). For the same compound, the “MIC, Bacillus subtilis ATCC 6633” value in test [3] worked out at 8 µg/mL (≈ 16.5 µM). In addition, in [4], the “MIC, Methicillin Resistant Staphylococcus aureus DMST 20654” value is 4 µg/mL (≈ 8.26 µM).
As to `CC(=O)O[C@H]1C[C@]2(C)[C@H]([C@H](OC(=O)/C=C(\C)CC(=O)O)C[C@]3(C)c4cocc4CC[C@@H]23)[C@@]2(C)CCCC(C)(C)[C@H]12` [Compound 8, Nambiscalarane], the half-maximal inhibitory concentration (IC50) in test [5] (Homo sapiens, A549, 72 h) is 27.5 ± 0.32 µM; in test [6] (Homo sapiens, HT-29, 72 h) it was 20.4 ± 2.07 µM; in test [7] (Homo sapiens, HeLa), 26.6 ± 2.58 µM; in test [8] (Homo sapiens, HCT-116, 72 h), 24.4 ± 2.06 µM; in test [9] (Chlorocebus sabaeus, Vero), > 100 µM. Moreover, the MIC in [1] was 16 µg/mL (≈ 28.8 µM); in test [2], 16 µg/mL (≈ 28.8 µM); in test [3], 8 µg/mL (≈ 14.4 µM); in [4], 128 µg/mL (≈ 231 µM). Also, in test [3], the “MIC, Bacillus subtilis ATCC 6633” value was 8 µg/mL (≈ 14.4 µM).
`CC(=O)OC1CC2(C)C3CCc4cocc4C3(C)CC(OC(=O)CC(=O)O)C2C2(C)CCCC(C)(C)C12` (centres unmarked) [Compound 2, Nambiscalarane C]: the 50% inhibitory concentration (IC50) in test [5] (Homo sapiens, A549, 72 h) is 85 ± 10.2 µM; in [6] (Homo sapiens, HT-29, 72 h) it was 33 ± 1.63 µM; in [7] (Homo sapiens, HeLa), 73.2 ± 5.37 µM; in [8] (Homo sapiens, HCT-116, 72 h) it was 14.3 ± 0.56 µM; in test [9] (Chlorocebus sabaeus, Vero), > 100 µM. The MIC was determined as 128 µg/mL (≈ 249 µM) in test [1], 32 µg/mL (≈ 62.2 µM) in test [2], 32 µg/mL (≈ 62.2 µM) in test [3] and 128 µg/mL (≈ 249 µM) in [4].
In the case of `CC(=O)OC1CC2(C)C3CCc4cocc4C3(C)CC(OC(=O)CC(C)=CC(=O)O)C2C2(C)CCCC(C)(C)C12` (centres unmarked) [Compound 3, Nambiscalarane D], the 50% inhibitory concentration (IC50) in [5] (Homo sapiens, A549, 72 h) stood at 25 ± 1.59 µM; in test [6] (Homo sapiens, HT-29, 72 h), 20.8 ± 0.63 µM; in test [7] (Homo sapiens, HeLa), 21.1 ± 1.66 µM; in test [8] (Homo sapiens, HCT-116, 72 h), 21.4 ± 1.14 µM; in test [9] (Chlorocebus sabaeus, Vero), 70.2 ± 8.23 µM. Further, the “IC50, Vero Cells” value in test [9] is on record as “no cytotoxicity”. For the same compound, the “MIC, Staphylococcus aureus ATCC 25923” value in [1] is “inactive”. Further, the results for the minimal inhibitory concentration (MIC) in [2] and in test [3] were 32 µg/mL (≈ 57.7 µM) and 16 µg/mL (≈ 28.8 µM), respectively. The “MIC, Methicillin Resistant Staphylococcus aureus DMST 20654” value in [4] is “inactive”.
In the case of `CC1(C)CCCC2(C)C1C(O)CC1(C)C3CCc4cocc4C3(C)CCC21` (centres unmarked) [Compound 1, Nambiscalarane B], the half-inhibitory concentration (IC50) is 24.3 ± 7.56 µM in test [5] (Homo sapiens, A549, 72 h); 22.71 ± 0.16 µM in [6] (Homo sapiens, HT-29, 72 h); 40.8 ± 0.73 µM in test [7] (Homo sapiens, HeLa); 20.3 ± 3.13 µM in test [8] (Homo sapiens, HCT-116, 72 h); > 100 µM in [9] (Chlorocebus sabaeus, Vero). The compound further had a minimal inhibitory concentration (MIC) in [1] of 128 µg/mL (≈ 345 µM). For the same compound, in [2], the “MIC, Bacillus cereus ATCC 11778” value is “inactive”. Moreover, the “MIC, Bacillus subtilis ATCC 6633” value in [3] was “inactive”. The “MIC, Methicillin Resistant Staphylococcus aureus DMST 20654” value in [4] is “inactive”.
As to `CC(=CC(=O)OC1CC2(C)c3cocc3CCC2C2(C)CC(O)C3C(C)(C)CCCC3(C)C12)CC(=O)O` (centres unmarked) [Compound 4, Nambiscalarane E], the IC50 is 22.9 ± 1.99 µM in test [5] (Homo sapiens, A549, 72 h); 19.6 ± 2.32 µM in [6] (Homo sapiens, HT-29, 72 h); 23.7 ± 0.51 µM in test [7] (Homo sapiens, HeLa); 13.4 ± 0.39 µM in test [8] (Homo sapiens, HCT-116, 72 h); > 100 µM in [9] (Chlorocebus sabaeus, Vero). Besides, the lowest concentration to inhibit growth in test [1] (MIC) was 128 µg/mL (≈ 250 µM). Moreover, the “MIC, Bacillus cereus ATCC 11778” value in test [2] was “inactive”. The “MIC, Bacillus subtilis ATCC 6633” value in test [3] is “inactive”. Further, in [4], the “MIC, Methicillin Resistant Staphylococcus aureus DMST 20654” value was “inactive”.
With `CC(=O)OC1CC2(C)C3CCC4=C(COC4=O)C3(C)CC(OC(=O)CC(C)=CC(=O)O)C2C2(C)CCCC(C)(C)C12` (centres unmarked) [Compound 6, Nambiscalarane G], the IC50 in test [5] (Homo sapiens, A549, 72 h) was > 100 µM; in test [6] (Homo sapiens, HT-29, 72 h) it was 78.2 ± 4.28 µM; in [7] (Homo sapiens, HeLa), 45.9 ± 2.77 µM; in [8] (Homo sapiens, HCT-116, 72 h), 16.5 ± 2.79 µM; in [9] (Chlorocebus sabaeus, Vero), > 100 µM. Also, the MIC came out at 64 µg/mL (≈ 112 µM) in test [1] and 128 µg/mL (≈ 224 µM) in test [2]. The “MIC, Bacillus subtilis ATCC 6633” value in test [3] was “inactive”. Besides, the “MIC, Methicillin Resistant Staphylococcus aureus DMST 20654” value in test [4] is “inactive”.
For `CC(=O)OC1CC2(C)C3CCC4=C(COC4=O)C3(C)CC(OC(=O)C=C(C)CC(=O)O)C2C2(C)CCCC(C)(C)C12` (centres unmarked) [Compound 5, Nambiscalarane F], the half-maximal inhibitory concentration (IC50) is 99.14 ± 0.36 µM in test [5] (Homo sapiens, A549, 72 h); 54.5 ± 5.93 µM in test [6] (Homo sapiens, HT-29, 72 h); 72.9 ± 5.23 µM in [7] (Homo sapiens, HeLa); 32.7 ± 2.37 µM in test [8] (Homo sapiens, HCT-116, 72 h); > 100 µM in test [9] (Chlorocebus sabaeus, Vero). Further, the “IC50, Vero Cells” value in [9] is on record as “no cytotoxicity”. Also, the MIC in test [1] was 16 µg/mL (≈ 28 µM); in test [2], 128 µg/mL (≈ 224 µM); in [3], 128 µg/mL (≈ 224 µM). In test [4], the “MIC, Methicillin Resistant Staphylococcus aureus DMST 20654” value was “inactive”.
With `N.N.[Cl][Pt][Cl]` [cis-platin, reference compound], the IC50 in [5] (72 h) was 16.86 ± 0.03 µM; in [6] (72 h) it was 5.3 ± 0.23 µM; in test [7], 6.43 ± 0.13 µM; in test [8] (72 h), 4.93 ± 0.77 µM; in [9], > 100 µM.

One may read the MIC as the smallest concentration in the dilution series that meets the test's criterion for growth inhibition. One may read the IC50 as the concentration at which inhibition is half-maximal.
